How the values were obtained:
[1] = biological target: T1, folate receptor (FR-α) on KB cells (Homo sapiens, UniProt P15328); experiment: Competition binding with [3H]-folic acid on KB cells
T1 construct: KB cells that overexpress FR-α were seeded in 24-well (100,000 cells/well) Falcon plates; host or cells: KB cells (human; described as a HeLa derivative)
Protocol: KB cells that overexpress FR-α were seeded in 24-well (100,000 cells/well) Falcon plates and allowed to form monolayers over a period of 24 h. […] After incubating for 1 hour at 37° C., cells were rinsed with PBS (2×0.5 mL) and 1M trichloroacetic acid (1×0.5 mL) to remove any unbound radioactive materials. After adding 1% sodium dodecylsulfate in PBS (0.5 mL), cells were transferred into individual scintillation vials containing Ecolume scintillation cocktail (3.0 mL) and counted in a liquid scintillation analyzer. The relative binding affinities were calculated using a plot of cell bound radioactivity versus the concentration of the test article using Graph Pad Prism 4.
(§1) KB cells that overexpress FR-α were seeded in 24-well (100,000 cells/well) Falcon plates (BD Biosciences, CA) and allowed to form monolayers over a period of 12 h. […] After incubating for 1 h at 37° C., cells were rinsed with PBS (3×0.5 mL, Gibco, NY) to remove any unbound radioactive materials. After adding 0.25 M sodium hydroxide (0.5 mL) and incubating for 12 h at 4° C., cells were transferred into individual scintillation vials containing Ecolite scintillation cocktail (3.0 mL, MP Biomedicals, OH) and counted in a liquid scintillation analyzer (Packard). The relative binding affinities were calculated using a plot of % cell bound radioactivity versus the log concentration of the test article using GraphPad Prism 4.
as §1, with “12 hours.” for “12 h.”, “1 hour” for “1 h”, “12 hours” for “12 h”

[2] = tested on: folate receptor negative A549 tumor xenografts; experiment: Whole body imaging and biodistribution, folate receptor-negative A549 tumor xenografts; type: in vivo, mice; conditions: for specificity for folate receptor (conclusion): FR-negative A549 xenografts
Protocol: Seven-week-old female nu/nu mice were inoculated subcutaneously with A549 cells (1.0×10^6/mouse in RPM11640 medium) on the shoulder. Growth of the tumors was measured in perpendicular directions every 2 days using a caliper (body weights were monitored on the same schedule), and the volumes of the tumors were calculated as 0.5×L×W^2 (L=longest axis and W=axis perpendicular to L in millimeters). Once tumors reached between 400 and 500 mm3 in volume, animals (6 mice/group) were intravenously injected with 10 nmol of OTL-0038 in phosphate buffered saline (100 μL). After 2.5 h, animals were sacrificed by CO2 asphyxiation. Whole body imaging (intact tumor) experiments were then performed using a Caliper IVIS Lumina II Imaging Station with Living Image 4.0 software (PerkinElmer Inc, MA). Settings for imaging:—lamp level: medium; excitation: 745 nm; emission: ICG (indocyanine green); epi illumination; binning: 4 (M), FOV=12.5; f-stop=2; acquisition time=1 s.
Following whole body imaging, animals were dissected and selected tissues (heart, lung, liver, spleen, kidneys, stomach, small intestine, large intestine, muscle, skin, tumor) were analyzed for fluorescence activity using IVIS imager as before. Settings for imaging:—lamp level: medium; excitation: 745 nm; emission: ICG; epi illumination; binning: 4 (M), FOV=12.5; f-stop=2; acquisition time=1 s.
Seven-week-old female nu/nu mice were inoculated subcutaneously with KB (1.0×10^6/mouse in RPM11640 medium), IGROV (5.0×10^6/mouse in 50% high concentrated matrigel+RPM11640 medium), SKOV3 (5.0×10^6/mouse in RPM11640 medium), OVCAR3 (5.0×10^6/mouse in RPM11640 medium), MDA-MB231 (1.0×10^6/mouse in RPM11640 medium), M109 (1.0×10^6/mouse in RPM11640 medium) or A549 cells (2.0×10^6/mouse in RPM11640 medium) on the shoulder. Growth of the tumors was measured in perpendicular directions every 2 days using a caliper (body weights were monitored on the same schedule), and the volumes of the tumors were calculated as 0.5×L×W^2 (L=longest axis and W=axis perpendicular to L in millimeters). Once tumors reached approximately 300-400 mm3 in volume, animals (3-5 mice/group) were intravenously injected with the compound of interest in PBS (for dose escalation in KB tumor model: 0.3-90 nmol, for time dependent in KB tumor model: 2 or 10 nmol, and for general whole body imaging and biodistribution for all tumor models: 2 nmol, in 100 μL in PBS per mouse). For whole body imaging and biodistribution studies, animals were euthanized 2 hours after administration of the compound of interest by CO2 asphyxiation. For time dependent studies, animals were imaged under anesthesia using isoflurane. Whole body imaging (intact tumor) experiments was then performed using a Caliper IVIS Lumina II Imaging Station with Living Image 4.0 software (PerkinElmer Inc, MA).
Following whole body imaging, animals were dissected and selected tissues (heart, lung, liver, spleen, kidneys, stomach, small intestine, large intestine, muscle, skin, and tumor) were analyzed for fluorescence activity using IVIS imager using same settings as in whole body imaging.

[3] = Toxicity in healthy nude mice; type: in vivo
Protocol: Seven-week-old healthy female nude mice (5 mice/group) were administered with 1 μmol of freshly prepared OTL-0038 or OTL-0039 dissolved in 100 μL of phosphate buffered saline via tail vein injection on day zero. Body weights and clinical observations were monitored prior to dosing and daily thereafter from day zero to 7. Any animals with a body weight loss of 20% or more over two consecutive days would be euthanized, but this was not necessary. The animals were euthanized by CO2 asphyxiation on day 7 and selected tissues (brain, heart, lung, liver, spleen, kidney, stomach, small intestine, large intestine, muscle, skin) were collected into vials containing 4% formalin. Formalin fixed tissues were sectioned into 10 μm thick sections and mounted onto Superfrost Plus™ slides (Fisher Scientific, Pittsburgh Pa.). After staining the slides with H&E, immunohistochemistry (IHC) analysis of the tissues was conducted to determine to the toxicity of OTL-0038 and OTL-0039.

T1 sequence (P15328 25-234): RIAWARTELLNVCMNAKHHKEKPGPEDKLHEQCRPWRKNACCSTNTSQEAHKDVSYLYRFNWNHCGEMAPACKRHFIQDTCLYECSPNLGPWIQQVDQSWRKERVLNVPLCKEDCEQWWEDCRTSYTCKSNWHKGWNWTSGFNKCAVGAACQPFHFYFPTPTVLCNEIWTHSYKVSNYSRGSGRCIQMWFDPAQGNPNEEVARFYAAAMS

For `CC1(C)C(/C=C/C2=C(Oc3ccc(C[C@H](NC(=O)c4ccc(NCc5cnc6nc(N)[nH]c(=O)c6n5)cc4)C(=O)[O-])cc3)C(=C/C=C3\N(CCCCS(=O)(=O)[O-])c4ccc(S(=O)(=O)[O-])cc4C3(C)C)/CCC2)=[N+](CCCCS(=O)(=O)[O-])c2ccc(S(=O)(=O)[O-])cc21.[H+].[H+].[H+].[H+]` [OTL-0038, Pte-Tyr-S0456], the “affinity and specificity for folate receptor (words)” value (“affinity and specificity” below) ([1]; KB cells) was “compares well with the binding affinity of folic acid”, the “competition with [3H]-folic acid” value ([1]; KB cells) was “competed well with [3H]-folic acid” and the “affinity and specificity” value ([1]; KB cells, listed as OTL38) was “binds to FR with high affinity and specificity”. For the same compound, the “affinity and specificity” value ([1]; KB cells, listed as Pte-Tyr-S0456) was “binds folate receptor with high affinity and specificity”, the Relative binding affinities ([1]; relative affinity of folic acid=1, <1 weaker) was 0.71 and the tissue biodistribution ([2]; 2 nmol i.v., 2 h) was “no fluorescence was observed in FR-negative tumors”. For the same compound, the “whole body imaging: accumulation” value ([2]; 2 nmol i.v., 2 h) was “did not accumulated in the FR-negative tumors”, the “whole body imaging: accumulation” value ([2]; 10 nmol i.v., 2.5 h) was “did not accumulated in the folate receptor negative tumors” and the “specificity for folate receptor (conclusion)” value [2] was “highly specific for folate receptor”. The “specificity for folate receptor (conclusion)” value ([2]; listed as OTL38) was “highly specific for FR”, the “toxicity (conclusion)” value ([3]; 1 μmol (1000× clinical dose)) was “not toxic to animals” and the “skin colour immediately after the injection” value ([3]; 1 μmol tail vein) was “became green”. The activity and behaviour ([3]; 1 μmol tail vein, day 0 to 7) was “behaved normally throughout the study”, the “body weights over the course of the study” value ([3]; 1 μmol tail vein, day 0 to 7) was “remained stable” and the “lesions in tissues (IHC data)” value ([3]; 1 μmol tail vein, day 7) was “no lesions identified in any tissues”.

Reference: patent US12133900B2, “Synthesis and composition of amino acid linking groups conjugated to compounds used for the targeted imaging of tumors” (Purdue Research Foundation, priority 2013, dated 2024)
